Where two headings read alike, the source gives them in different places.
Legend:
Aedes aegypti = assay: Topical toxicity bioassay on adult females; assay type: in vivo; settings: for signs of intoxication: DEET lethal doses, propoxur 1 ng/insect, five minutes after treatment; for LD50 (95% CI): topical application, ng of compound/mg body weight, 24 hr
Description: Topical toxicity bioassays on adult female mosquitoes were performed based on the method of Pridgeon et al.. Briefly, insects were chilled on ice for 3 min, during which the appropriate volume (200 nL for mosquitoes, 1 µL for Musca) of chemical (dissolved in 95% ethanol) was applied onto the abdomen using a handheld Hamilton microapplicator. For each inhibitor, five doses were applied to groups of ten insects each and repeated three times. An ethanol-only treatment was included in each experiment as a negative control. Insects were transferred into a holding chamber post-treatment and supplied with free access to sugar water for the duration of the experiment. […] Three LD50 values were obtained and the mean LD50 value was calculated and used for statistical analysis.
For all toxicity assays, control mortality was corrected for using Abbots formula [19]; where corrected percent mortality = (% alive in control–% alive in treated) /% alive in control.

[1] = molecular target: T1, AKRON AgAChE (G119S AChE mutation) (Anopheles gambiae, UniProt Q869C3, G280S); assay: AChE inhibition, Ellman assay; assay type: biochemical
T1 construct: Homogenate enzymes were prepared from groups of ten non-blood fed adult female mosquitoes; from tissue; host or cells: whole adult female mosquitoes, AKRON strain, supernatant of homogenate
Excerpt: (§1) In vitro biochemical assays utilized five acetylcholinesterase (AChE) enzymes. Recombinant human AChE (hAChE) was purchased from a commercial source (lyophilized powder, Sigma C1682, St. Louis, MO, USA). Homogenates to prepare Anopheles gambiae AChE (AgAChE) were obtained from the wild type G3 strain and the resistant AKRON strain (BEI Resources; http://www.beiresources.org/). AKRON mosquitoes (from Benin and donated by M. Akogbeto) have both knockdown resistance (kdr) to pyrethroids (L1014F sodium channel mutation) and the G119S AChE mutation (ace-1R), which confers resistance to carbamates, [15]. Both strains were cultured in the Emerging Pathogens Institute, University of Florida, Gainesville, FL, USA from eggs provided by the Center for Disease Control, Atlanta, GA, USA. Homogenates were also used to prepare Aedes aegypti AChE (AeAChE) from mosquitoes provided by the CMAVE, USDA-ARS, Gainesville, FL, USA; Musca domestica AChE (MdAChE) from flies cultured in the Department of Entomology and Nematology, Medical Entomology Laboratory, University of Florida, Gainesville, FL, USA); and Drosophila melanogaster AChE (DmAChE) from flies (Oregon-R strain) cultured in the Emerging Pathogens Institute, University of Florida, Gainesville, FL, USA. Homogenate enzymes were prepared from groups of ten non-blood fed adult female mosquitoes, five whole bodied Drosophila, or three Musca heads homogenized in 1 mL of ice-cold sodium phosphate buffer (0.1 M sodium phosphate, pH 7.8) with an electric motor driven glass tissue homogenizer. The homogenate was centrifuged at 5000×g using a Sorvall Fresco refrigerated centrifuge at 4 °C for 5 minutes. The supernatant was used as the enzyme source, and all enzyme preparations contained 0.3% (v/v) triton X-100 and 1 mg/ml BSA. Prior to use, the recombinant human enzyme was diluted 500-fold into sodium phosphate buffer containing triton X-100 and 1 mg/ml BSA.
(§2) Inhibition of AChE was determined using the Ellman assay and was based on the method outlined in Carlier et al.. Briefly, enzyme solution (10 µL) was added to each well of a 96-well micro assay plate, along with 20 µL of inhibitor in DMSO/saline suspension, and 150 µL of sodium phosphate buffer. Final concentration of DMSO was 0.1% in all incubations. The plate was incubated at 25 °C for ten minutes. Ellman assay reagents, acetylthiocholine iodide (0.4 mM, final concentration) and 5,5′-dithiobis-(2-nitro)benzoic acid (0.3 mM, final concentration), were prepared fresh and 20 µL was added to the enzyme to initiate the reaction. Changes in absorbance were recorded by a DYNEX Triad spectrophotometer (DYNEX Technologies, Chantilly, VA, USA) at 405 nm. Enzyme concentrations used were within the linear range, therefore eliminating the need for protein quantification.

[2] = molecular target: Musca domestica AChE (MdAChE) (Musca domestica, UniProt Q7YWJ9); assay: AChE inhibition, Ellman assay; assay type: biochemical
Excerpt: as §1, §2

[3] = molecular target: T2, Recombinant human AChE (hAChE) (Homo sapiens, UniProt P22303); assay: AChE inhibition, Ellman assay; assay type: biochemical; settings: mean, n = 3; read-out: IC50 (95% CI)
T2 construct: purchased Sigma C1682
Excerpt: as §1, §2

firefly light organ = assay: In vivo assay for effects on firefly light organ; design: species or system Photinus pyralis
Description: Adult firefly beetles (Photinus sp.) were collected locally (Nashville, TN) and housed in well-ventilated chambers with tree leaves. The animals had free access to 10% sucrose solution. Chemicals were dissolved in absolute ethanol and 1 µL was topically applied directly to the ventral light organ with the use of a manual pipettor. Prior to DEET application, the beetles were immobilized with molten parafilm and were mounted on corrugated cardboard for the duration of the study. Due to the time required for bioactivation of CDM, insects were treated with 1 µL of CDM and were released back into the holding chamber for three hours. After three hours, they were mounted in the previously described manner and monitored for activation of the lantern. Photographs were captured with a handheld camera (Canon PowerShot SX110 IS). Pictures were captured within five minutes, four hours, and 10 minutes post application for DEET, CDM, and propoxur, respectively. DEET- and propoxur-treated insects were monitored for at least 1 hour post exposure to ensure the response was not slow acting. The original photographs were cropped and background shadows were enhanced to increase detail of the insect using Adobe Photoshop PS5 (Adobe Systems, San Jose, CA, USA). The color or brightness of the light organ was not manipulated in any way during post-processing of the image.

rats = tested on: rats; design: method as in ref 24 = [24]; 24 Macko J , Weeks M ( 1980 ) Phase 6: Acute toxicity evaluation of N,N-diethyl-meta-toluamide (M-Det.) . U.S. Army Environmental Hygiene Agency Study No.71-51-0034-81.; settings: oral administration to rats ref 24; cited from earlier work

In the case of `CNC(=O)Oc1ccccc1OC(C)C` [propoxur], the signs of intoxication (Aedes aegypti) is reported as “intense hyperexcitation in the absence of any physical stimulation”, the “LD50 (95% CI)” value (Aedes aegypti) is reported as 1.4 (95% CI: 0.9–2.1) ng/mg and the IC50 [1] is reported as > 0.1 mM. For the same compound, the “fold more potent than the IC50 value of DEET to MdAChE” value ([2]; mean IC50) was 40,000 fold, the IC50 ([2]; read-out: IC50 (95% CI); mean, n = 3) was 0.00013 mM and the IC50 [3] was 0.00144 mM. For the same compound, the lantern illumination (firefly light organ; 1 µg topically on light organ) was “no changes in lantern illumination”.

In the case of `CCN(CC)C(=O)c1cccc(C)c1` [DEET, N, N-diethyl-meta-toluamide], the signs of intoxication (Aedes aegypti) is reported as “both hyperexcitatory and lethargic tendencies”, the “LD50 (95% CI)” value (Aedes aegypti) is reported as 1102 (836–1367)a ng/mg and the IC50 [1] is reported as > 10 mM. For the same compound, the IC50 ([2]; mean, n = 3; read-out: IC50 (95% CI)) was 6 mM, the IC50 [3] was 12 mM and the lantern illumination (firefly light organ; 5 µg topically on light organ) was “Bright and complete illumination of the lantern”. The “period the lantern remained active” value (firefly light organ; 5 µg, majority of individuals) was 10 to 60 s, the lantern illumination (firefly light organ; 1 and 2.5 µg topically on light organ) was “Faint illumination in circumscribed areas of the lantern” and the “interval of repeated activation of the lantern” value (firefly light organ; controls flashed every 45-90 seconds) was 10 to 20 s. For the same compound, the LD50 (rats) was “ca. 3000 mg/kg”.

Source: PMC4125160, “Neurotoxicity and Mode of Action of N, N-Diethyl-Meta-Toluamide (DEET)” (PLoS ONE, 2014)
